# From patent EP2012793B1, “USE OF A TRICYCLIC COMPOUND FOR PREPARING A MEDICAMENT FOR TREATING SKELETAL MUSCLE DEGENERATION OF GENETIC ORIGIN” (Association Française contre les Myopathies, priority 2006, dated 2007)
# Where a name gives a salt, the structure may show the parent alone.
# Tests used:
# [1] = system: souche de nématode dépourvue de dystrophine; experiment: Test on dystrophin-deficient nematode strain (model of degenerative myopathy): paralysis phenotype and cytological count of degenerating muscle cells; format: in vivo, Caenorhabditis elegans; details: for Diminution de la dégénérescence en %: untreated = 0; for Pourcentage d'animaux paralysés à J7: untreated = 100
# Procedure: Les composés ont été testés sur une souche de nématode dépourvue de dystrophine (Gieseler et al., Current Biology, 2000, vol. 10, p1092-1097) et (Ségalat, Neuromuscular Disorders, 2002, Suppl: S105-9). Cette souche est utilisée comme modèle de myopathie dégénérative. Dans cette souche, jusqu'à 30% des cellules musculaires servant à la locomotion (muscles longitudinaux) dégénèrent à l'état adulte (7 jours à 15°C), ce qui se traduit par une paralysie progressive des animaux.
# Les composés sont administrés par mélange avec la gélose sur laquelle sont cultivés les animaux. Ils pénètrent par diffusion à travers la cuticule des animaux.
# L'effet des composés sur la dégénérescence musculaire est évalué par 1) l'observation du phénotype des animaux (paralysie), et 2) par l'examen cytologique de la. dégénérescence musculaire au moyen de marqueurs musculaires : rodamine-phalloidine et anticorps anti-myosine. Cet examen permet de compter le nombre de cellules musculaires en dégénérescence ou mortes (Gieseler et al. , 2000, supra).
# [2] = system: souris mdx (génotype C57/BL6 mdx5cv); experiment: mdx mouse, histological tests (fibre size dispersion, diaphragm degeneration/necrosis, centronucleated fibres); format: in vivo
# Text: (§1) Les tests effectués chez la souris sont de plusieurs types : histologiques, fonctionnels sur l'animal entier, et fonctionnels sur muscles disséqués. Les tests sont effectués sur la souris mdx (génotype C57/BL6 mdx5cv), modèle murin de myopathie dégénérative. Ces tests sont notamment détaillés dans les publications suivantes auxquelles on pourra se référer : • De Luca A, et al. Am. J. Pathol. 2005; 166(2), 477-89. • Divet A, etal. Pflugers Arch. 2002 Aug; 444(5), 634-43. Epub 2002 Jul 10. • Rafael JA, et al. Mamm Genome. 2000 Sep; 11(9), 725-8.
# (§2) Les composés sont administrés oralement aux souris dans leur nourriture. Les souris sont traitées de l'âge de 2 semaines à 6 semaines. Elles sont testées à 6 semaines.
# [3] = system: souris mdx (génotype C57/BL6 mdx5cv); details: treated from 2 to 6 weeks of age
# Text: as §1, §2
# [4] = system: protéolyse du muscle de C. elegans; experiment: C. elegans muscle proteolysis model representative of cachexia (protocol of Zdinak et al.); format: in vivo; details: remaining proteolysis relative to control; strongly reduced
# [5] = concentration efficace 0,1 mg/ml in culture agar
# [6] = 0,1 mg/ml in culture agar (0,2-0,3 mM), after 7 days of culture at 15°C
structure (smiles),measurement,setting,value
"CC(CN(C)C)CN1c2ccccc2Sc2ccccc21 (stereo not shown) [Trimeprazine, triméprazine]",Diminution de la dégénérescence en %,[1]; [5],65%
NCCc1c[nH]c2ccc(O)cc12 [sérotonine],dégénérescence musculaire,"[1]; result in words, concentration not given",diminue également la dégénérescence musculaire
"CN(C)CCC=C1c2ccccc2C=Cc2ccccc21 [Cyclobenzaprine, cyclobenzaprine]",Diminution de la dégénérescence en %,"[1]; concentration efficace 0,05 mg/ml in culture agar",63%
same,Réduction de l'indice de dégénérescence du diaphragme (fibres nécrotiques et fibres centronucléées),"[2]; 3mg/jour/kg oral in food, treated from 2 to 6 weeks of age",21%
same,Réduction de la dispersion de taille des fibres (marqueur de dégénérescence),"[2]; 3mg/jour/kg oral in food, treated from 2 to 6 weeks of age, versus untreated animals",52%
same,Augmentation de la force exercée dans test d'agrippement,[3]; 3mg/jour/kg oral in food,24%
same,Augmentation du score le test d'agrippement,[3]; 3mg/jour/kg oral in food,40%
"CN(C)CCCN1c2ccccc2CCc2ccccc21 [Imipramine chlorhydrate, imipramine]",Diminution de la dégénérescence en %,[1]; [6],37%
same,Pourcentage d'animaux paralysés à J7,[1]; [6],65%
same,protéolyse,[4],20 % de la protéolyse du témoin
same,Augmentation de la tension développée par le muscle EDL sur animaux vivants,[3]; 40mg/jour/kg oral in food,20%
same,Augmentation du score avec le test d'agrippement,[3]; 40mg/jour/kg oral in food,48%
same,Augmentation de la tension maximale développée par le muscle isolé,"[3]; 40mg/jour/kg oral in food, triton-skinned fibre protocol",50%
"CNCCCN1c2ccccc2CCc2ccccc21 [Desipramine chlorhydrate, désipramine]",Diminution de la dégénérescence en %,[1]; [6],58%
same,Pourcentage d'animaux paralysés à J7,[1]; [6],58%
"CC(CN(C)C)CN1c2ccccc2CCc2ccccc21 (stereo not shown) [Trimipramine maleate, trimipramine]",nécrose du diaphragme,"[2]; 15 mg/kg/jour, test of Raymackers et al., p<5%",réduit la nécrose du diaphragme
same,nombre de fibres centronucléées,"[2]; 15 mg/kg/jour, test of Shavlakadze et al., p<0,1%",réduit
"COc1ccc2c(c1)N(C[C@H](C)CN(C)C)c1ccccc1S2 [Methotrimeprazine, méthotriméprazine]",Diminution de la dégénérescence en %,[1]; [5],70%
"CN(C)CC/C=C1/c2ccccc2Sc2ccc(Cl)cc21 [Chloroprothixene, chlorprothixene]",Diminution de la dégénérescence en %,"[1]; concentration efficace 0,02 mg/ml in culture agar",58%
